pIC50: −log10 of the molar value.

Three molecules from patent publication US5856509A, “Derivatives of imidazole, their preparation process, the new intermediates obtained, their use as medicaments and the pharmaceutical compositions containing them” (Roussel Uclaf, priority 1994, dated 1999) can be followed below.

One experiment concerns the target T1, B receptor of endothelin (Rattus norvegicus, UniProt P21451).
T1 construct: A membrane preparation is produced from the posterior cortex plus cerebellum of a rat; from tissue; host or cells: rat posterior cortex plus cerebellum, membrane preparation
T1 sequence (P21451 27-442): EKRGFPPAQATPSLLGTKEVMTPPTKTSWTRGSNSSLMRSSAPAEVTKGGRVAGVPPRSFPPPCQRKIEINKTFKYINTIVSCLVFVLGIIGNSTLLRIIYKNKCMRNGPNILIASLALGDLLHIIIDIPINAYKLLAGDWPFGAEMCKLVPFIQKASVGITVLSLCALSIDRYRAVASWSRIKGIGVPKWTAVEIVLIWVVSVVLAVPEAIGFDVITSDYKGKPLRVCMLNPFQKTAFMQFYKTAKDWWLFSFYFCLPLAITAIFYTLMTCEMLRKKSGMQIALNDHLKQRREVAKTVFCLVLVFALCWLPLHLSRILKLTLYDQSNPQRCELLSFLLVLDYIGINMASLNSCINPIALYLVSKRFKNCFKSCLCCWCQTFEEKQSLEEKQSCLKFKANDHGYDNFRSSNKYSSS
Briefly: Study of the activity on the B receptor of endothelin: displacement of 125I Endothelin on membrane preparation of rat posterior cortex plus cerebellum. The format is binding. The following applies: Table I, rat posterior cortex plus cerebellum membranes, 25° C., 60 minutes, read-out: B receptor of endothelin IC50 in nanomoles. As to the method: STUDY OF THE ACTIVITY ON THE B RECEPTOR OF ENDOTHELIN
A membrane preparation is produced from the posterior cortex plus cerebellum of a rat. The tissue is ground up in a POLYTRON in a 50 mM Tris buffer pH=7.4.
After 30 minutes at 25° C. (W.B.) the homogenate is centrifuged at 30000 g for 15 minutes (2 centrifugations with intermediate take-up in the Tris buffer pH. 7.4).
(§1) The pellets are resuspended in an incubation buffer (25 mM Tris, 5 microg/ml pepstatin A, 3 microg/ml aprotinin, 0.1 mM PMSF, 3 mM EDTA, 1 mM EGTA pH 7.4).
(§2) 2 ml aliquots are distributed into hemolysis tubes and ^125 I Endothelin (approximately 50000 dpm/tube) and the product to be studied are added. (The product is first tested at 3×10^-5 M three times). When the tested product displaces more than 50% of the radioactivity specifically bound to the receptor, it is tested again according to a range of 7 concentrations so as to determine the concentration which inhibits the radioactivity specifically bound to the receptor by 50%. In this way the 50% inhibitory concentration is determined.
(§3) The non-specific bond is determined by the addition of 10^-6 M endothelin (three times). After incubation at 25° C. for 60 minutes, putting back in the water bath at 0° C., for 5 minutes, filtering under reduced pressure, rinsing with Tris buffer 7.4, the radioactivity is counted in the presence of scintillating Triton.
(§4) The result is expressed directly as the 50% inhibitory concentration (IC50), that is to say as the concentration of product studied expressed in nM, necessary to displace 50% of the specific radioactivity bound to the receptor studied.

The next experiment concerns the target T2, A receptor of endothelin (Rattus norvegicus, UniProt P26684).
T2 construct: A membrane preparation is produced from the heart (ventricles) of a rat; from tissue; host or cells: rat heart (ventricles), membrane preparation
T2 sequence (P26684 21-426): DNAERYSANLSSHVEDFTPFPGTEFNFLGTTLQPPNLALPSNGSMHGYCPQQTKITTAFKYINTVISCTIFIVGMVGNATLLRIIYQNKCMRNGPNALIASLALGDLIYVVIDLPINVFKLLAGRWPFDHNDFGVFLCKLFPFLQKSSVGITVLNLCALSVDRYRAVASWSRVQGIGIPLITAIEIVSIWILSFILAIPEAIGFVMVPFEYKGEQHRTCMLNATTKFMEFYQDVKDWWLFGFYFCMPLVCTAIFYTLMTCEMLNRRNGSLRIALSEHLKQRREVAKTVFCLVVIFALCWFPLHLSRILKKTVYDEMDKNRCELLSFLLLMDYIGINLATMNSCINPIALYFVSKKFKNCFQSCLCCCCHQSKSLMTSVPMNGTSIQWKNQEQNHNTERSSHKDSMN
The experiment can be described thus: Study of the activity on the A receptor of endothelin: displacement of 125I Endothelin on membrane preparation of rat heart (ventricles). The format is binding. The following applies: Table II, rat heart (ventricles) membranes, 25° C., 60 minutes, read-out: B receptor of endothelin IC50 in nanomoles. The protocol:
STUDY OF THE ACTIVITY ON THE A RECEPTOR OF ENDOTHELIN
A membrane preparation is produced from the heart (ventricles) of a rat. The tissue is ground up in a POLYTRON in a 50 mM Tris buffer pH=7.4.
After 30 minutes at 25° C. (W.B.) the homogenate is centrifuged at 30000 g for 15 minutes (2 centrifugations with intermediate take up in the Tris buffer pH. 7.4).
as §1, §2, §3, §4
Background: In a radioligand displacement assay an active substance lowers the binding of a labelled ligand.

One may read the pIC50 as the negative decadic logarithm of the IC50, by convention in mol/L. Take `COc1ccc(CSc2nc(Sc3ccccc3)n(Cc3cc4c(cc3Cl)OCO4)c2C(=O)O)cc1` [Example 10, 1-((6-chloro-1,3-benzodioxol-5-yl)methyl)-4-(((4-methoxyphenyl)methyl)thio)-2-(phenylthio)-1H-imidazole-5-carboxylic acid]: the pIC50 on B receptor of endothelin is 6.38; at A receptor of endothelin, 6.78.

Turning to `COc1ccc(Sc2nc(Sc3ccccc3)n(Cc3cc4c(cc3Cl)OCO4)c2C(=O)O)cc1` [Example 15], the pIC50 on B receptor of endothelin was 6.96; at A receptor of endothelin, 6.77.

Take `COc1ccc(Sc2nc(Sc3ccc(OC)cc3)n(Cc3cc4c(cc3Cl)OCO4)c2C(=O)O)cc1` [Example 18, 1-((6-chloro-1,3-benzodioxol-5-yl)methyl)-2,4-bis(4-(methoxyphenyl)thio)-1H-imidazole-5-carboxylic acid]: the pIC50 was 7.06 on B receptor of endothelin and 6.64 at A receptor of endothelin.
